Reference: paper PMC6933146 (Biotechnology Reports, 2019)
Values belong to the compound of their own block, whether it stands above or below them.

What was measured:
Assay type in all cases: biochemical, Alcaligenes faecalis
[1] = test system: LAC1* (purified extracellular laccase); assay: spectrophotometric oxidation; settings: optimized conditions (optimum pH for guaiacol 8), 50-500 μM substrate
[2] = test system: LAC1* (purified extracellular laccase); assay: spectrophotometric oxidation at […] nm, Lineweaver-Burk; settings: pH 8.0, 80 °C, 50-500 μM substrate
[3] = test system: LAC1* (purified extracellular laccase); assay: spectrophotometric oxidation; settings: optimized conditions (optimum pH for ABTS 5.5), 50-500 μM substrate

Km [1]: 1000 µM
SMILES: COc1ccccc1O [Guaiacol]

Km [2]: 480 µM
SMILES: COc1cccc(OC)c1O [2,6-DMP]

Km [3]: 500 µM
SMILES: CCn1c(=NN=c2sc3cc(S(=O)(=O)O)ccc3n2CC)sc2cc(S(=O)(=O)O)ccc21 [ABTS]
